Measured values taken from ChEMBL document CHEMBL3886696, “Compounds and methods for treating ocular diseases” (2016).

Tests used:
[1] = target: T1, Prostaglandin E2 receptor EP4 subtype (Homo sapiens, UniProt P35408); assay: (§1) Radioligand Binding: HEK-293 cells stably expressing the human or feline FP receptor, or EP1, EP2, or EP4 receptors were washed with TME buffer, scraped from the bottom of the flasks, and homogenized for 30 sec using a Brinkman PT 10/35 polytron. TME buffer was added to achieve a final 40 ml volume in the centrifuge tubes (the composition of TME is 100 mM TRIS base, 20 mM MgCl2, […]; 10N HCl is added to achieve a pH of 7.4). The cell homogenate was centrifuged at 19000 r.p.m. for 20 min at 4 °C. using a Beckman Ti-60 rotor. The resultant pellet was resuspended in TME buffer to give a final 1 mg/ml protein concentration, as determined by Biorad assay. Radioligand binding competition assays vs. [3H-]17-phenyl PGF2a (5 nM) were performed in a 100 μl volume for 60 min. Binding reactions were started by adding plasma membrane fraction. The reaction was terminated by the addition of 4 ml ice-cold TRIS-HCl buffer and rapid filtration through glass fiber GF/B filters using a Brandel cell harvester. The filters were washed 3 times with ice-cold buffer and oven dried for one hour. [3H−] PGE2 (specific activity 180 Ci mmol) was used as the radioligand for EP receptors. [3H] 17-phenyl PGF2a was employed for FP receptor binding studies. Binding studies employing EP1, EP2, EP4 and FP receptors were performed in duplicate in at least three separate experiments. A 200 μl assay volume was used. […]; type: cell-free
[2] = target: T2, Prostaglandin E2 receptor EP2 subtype (Homo sapiens, UniProt P43116); assay: as §1; type: cell-free
[3] = target: T1, Prostaglandin E2 receptor EP4 subtype; assay: (§2) cAMP Assay: EP4 receptors couple to Gs and mediate elevations in cAMP concentration, although they do participate in other pathways as well. There are some redundancies in function between EP2 and EP4 receptors. For example, both receptors induce PGE2-mediated RANKL through cAMP.; type: functional
[4] = target: T2, Prostaglandin E2 receptor EP2 subtype; assay: as §2; type: functional

T2 sequence (P43116 whole entry): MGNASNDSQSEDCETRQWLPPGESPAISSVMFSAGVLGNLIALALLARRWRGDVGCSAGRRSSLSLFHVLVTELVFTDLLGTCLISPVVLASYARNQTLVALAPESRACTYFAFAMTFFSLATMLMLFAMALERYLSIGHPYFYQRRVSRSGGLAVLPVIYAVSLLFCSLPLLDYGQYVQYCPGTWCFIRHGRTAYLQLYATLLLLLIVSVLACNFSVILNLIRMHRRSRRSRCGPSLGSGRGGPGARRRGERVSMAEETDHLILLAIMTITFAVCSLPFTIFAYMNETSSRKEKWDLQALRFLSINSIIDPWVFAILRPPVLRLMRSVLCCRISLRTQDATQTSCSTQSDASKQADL
T1 sequence (P35408 whole entry): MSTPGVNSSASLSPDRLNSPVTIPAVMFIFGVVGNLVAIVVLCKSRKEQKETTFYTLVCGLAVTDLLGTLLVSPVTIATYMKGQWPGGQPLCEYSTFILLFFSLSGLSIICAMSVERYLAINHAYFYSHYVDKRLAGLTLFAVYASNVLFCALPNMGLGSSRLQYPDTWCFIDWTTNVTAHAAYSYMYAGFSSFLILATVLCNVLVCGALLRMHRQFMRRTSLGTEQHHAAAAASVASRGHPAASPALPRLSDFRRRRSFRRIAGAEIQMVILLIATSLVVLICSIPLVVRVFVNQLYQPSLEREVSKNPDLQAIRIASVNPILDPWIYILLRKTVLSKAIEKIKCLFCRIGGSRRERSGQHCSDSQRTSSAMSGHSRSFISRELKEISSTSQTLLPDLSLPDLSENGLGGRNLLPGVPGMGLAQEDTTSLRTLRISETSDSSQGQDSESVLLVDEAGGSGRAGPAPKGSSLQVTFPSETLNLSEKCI

With `O=C(O)c1ccc(CCCN2[C@@H](/C=C/C(O)Cc3cccc(OC(F)(F)F)c3)CCS2(=O)=O)s1` (some centres undefined) the EC50 [1] was 53 nM, the EC50 [2] was 96 nM and the EC50 [3] was 1 nM. For the same compound, the EC50 [4] was 38 nM.
